The text below walks through data of US6479519B1, “Substituted anilides” (Aventis Pharma Limited, priority 1997, dated 2002).

Usually melting point stands for the temperature of the solid-liquid transition. As to `COc1cc(N(C(C)=O)c2ccc([C@@H](CC(=O)O)NC(=O)CN)cc2)ccc1NC(=O)Nc1ccccc1C` [Example 10, (R)-3-[(2-amino-acetyl)amino]-3-(4-{3-methoxy-4-[3-(2-methylphenyl)ureido]phenyl-acetylamino}phenyl)propanoic acid], the melting point was 105 to 108 °C (dec.).

`COc1cc(CC(=O)Nc2ccc([C@@H](CC(=O)O)NC(=O)CCCC(=O)O)cc2)ccc1NC(=O)Nc1ccccc1C` [Example 5(h), (R)-3-(4-carboxybutanoyl-amino)-3-(4-{3-methoxy-4-[3-(2-methylphenyl)ureido]phenylacetylamino}-phenyl)-propanoic acid]: the melting point lay within 220 to 222 °C.

In the case of `COc1cc(CC(=O)Nc2ccc([C@@H](CC(=O)O)NC(=O)c3ccc[n+]([O-])c3)cc2)ccc1NC(=O)Nc1ccccc1C` [Example 11, (R)-3-[(1-oxido-pyridine-3-carbonyl)amino]-3-(4-{3-methoxy-4-[3-(2-methylphenyl)ureido]-phenylacetylamino}phenyl)-propanoic acid], the melting point was 190 °C (dec.).
